Test results published in ChEMBL document CHEMBL1201862, “PubChem BioAssay data set” (2004).
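Interpolation was linear, between the two tested concentrations surrounding the appropriate level; five concentrations were tested over 48 hours in 96-well plates. GI50: concentration for 50% inhibition of growth.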 Active and inactive are the calls of the source. No stated cut-off is given here; in the data, active = GI50 up to about 1.1 µM and inactive = higher.

How the values were obtained:
Assay in all cases: NCI anticancer screen, dose series, 48 h
SK-MEL-2 = system: SK-MEL-2
A498 = system: A498
SF-295 = system: SF-295
HOP-62 = system: HOP-62
OVCAR-4 = system: OVCAR-4
NCI-H23 = system: NCI-H23
M14 = system: M14
OVCAR-8 = system: OVCAR-8
NCI-H522 = system: NCI-H522
U-251 = system: U-251
HT-29 = system: HT-29
SNB-19 = system: SNB-19
T47D = system: T47D
SN12C = system: SN12C
RPMI-8226 = system: RPMI-8226
PC-3 = system: PC-3
NCI-H460 = system: NCI-H460
HCT-15 = system: HCT-15

SMILES | GI50 (SK-MEL-2) | GI50 (A498) | GI50 (SF-295) | GI50 (HOP-62) | GI50 (OVCAR-4) | GI50 (NCI-H23) | GI50 (M14) | GI50 (OVCAR-8) | GI50 (NCI-H522) | GI50 (U-251) | GI50 (HT-29) | GI50 (SNB-19) | GI50 (T47D) | GI50 (SN12C) | GI50 (RPMI-8226) | GI50 (PC-3) | GI50 (NCI-H460) | GI50 (HCT-15)
O=C(O)CSSCC(=O)O | > 100 µM (inactive) | > 100 µM (inactive) | > 100 µM (inactive) | > 100 µM (inactive) | > 100 µM (inactive) | > 100 µM (inactive) | > 100 µM (inactive) | > 100 µM (inactive) | > 100 µM (inactive) | > 100 µM (inactive) | > 100 µM (inactive) | > 100 µM (inactive) | > 100 µM (inactive) | > 100 µM (inactive) | > 100 µM (inactive) | > 100 µM (inactive) | > 100 µM (inactive) | > 100 µM
O=C1OCCC12CN(Cc1ccccc1)N=N2 (centres undefined) | > 100 µM (inactive) | > 100 µM (inactive) | > 100 µM (inactive) | > 100 µM (inactive) | > 100 µM (inactive) | > 100 µM (inactive) | > 100 µM (inactive) | > 100 µM (inactive) | 49.9 µM (inactive) | > 100 µM (inactive) | > 100 µM (inactive) | > 100 µM (inactive) | > 100 µM (inactive) | > 100 µM (inactive) | > 100 µM (inactive) | > 100 µM (inactive) | > 100 µM (inactive) | > 100 µM
CS(=O)(=O)N1CC(CCl)c2ccc([N+](=O)[O-])cc21 (centres undefined) | > 100 µM (inactive) | > 100 µM (inactive) | > 100 µM (inactive) | > 100 µM (inactive) | > 100 µM (inactive) | > 100 µM (inactive) | > 100 µM (inactive) | > 100 µM (inactive) | > 100 µM (inactive) | 58.6 µM (inactive) | > 100 µM (inactive) | > 100 µM (inactive) | > 100 µM (inactive) | > 100 µM (inactive) | > 100 µM (inactive) | > 100 µM (inactive) | 38.2 µM (inactive) | > 100 µM
CC(C)CNC(=O)Cn1c(-c2ccccc2)cc2ccccc21 | > 100 µM (inactive) | – | 54.3 µM (inactive) | > 100 µM (inactive) | > 100 µM (inactive) | > 100 µM (inactive) | > 100 µM (inactive) | > 100 µM (inactive) | 68.1 µM (inactive) | > 100 µM (inactive) | > 100 µM (inactive) | > 100 µM (inactive) | > 100 µM (inactive) | > 100 µM (inactive) | > 100 µM (inactive) | > 100 µM (inactive) | > 100 µM (inactive) | > 100 µM
COc1cc(OC)c2c(O)c(S(=O)(=O)c3ccc(C)cc3)c(=O)oc2c1 | > 100 µM (inactive) | > 100 µM (inactive) | > 100 µM (inactive) | – | > 100 µM (inactive) | > 100 µM (inactive) | > 100 µM (inactive) | > 100 µM (inactive) | > 100 µM (inactive) | 96.6 µM (inactive) | > 100 µM (inactive) | 93.3 µM (inactive) | > 100 µM (inactive) | > 100 µM (inactive) | 76.7 µM (inactive) | > 100 µM (inactive) | > 100 µM (inactive) | > 100 µM
COc1cc(OC)c(-n2[nH]c(=O)n(C)c2=O)c(OC)c1 | > 100 µM (inactive) | > 100 µM (inactive) | – | – | > 100 µM (inactive) | > 100 µM (inactive) | > 100 µM (inactive) | > 100 µM (inactive) | 49.7 µM (inactive) | > 100 µM (inactive) | > 100 µM (inactive) | > 100 µM (inactive) | > 100 µM (inactive) | > 100 µM (inactive) | > 100 µM (inactive) | > 100 µM (inactive) | > 100 µM (inactive) | > 100 µM
C[C@H]1C[C@H]2[C@@H]3C(C)(C)O[C@]4(O)C(=O)[C@]5(O)[C@@H](C)CC[C@H]1[C@]25C(=O)[C@]34C | 31.3 µM (inactive) | 35 µM (inactive) | 30.1 µM (inactive) | 47.1 µM (inactive) | – | 30.3 µM (inactive) | 71 µM (inactive) | 63.7 µM (inactive) | 18 µM (inactive) | 60.3 µM (inactive) | 26 µM (inactive) | > 100 µM (inactive) | 25.2 µM (inactive) | 80.2 µM (inactive) | 18.1 µM (inactive) | 44.1 µM (inactive) | 30.2 µM (inactive) | 33.9 µM
CCN(CC)c1ccc(/C=C/C2=NN(c3cccc(S(=O)(=O)O)c3)C3(C2)SCC(=O)N3c2nc3ccccc3s2)cc1 (centres undefined) | 40.1 µM (inactive) | 27.5 µM (inactive) | – | – | 23.4 µM (inactive) | 37.2 µM (inactive) | 41.8 µM (inactive) | 33.6 µM (inactive) | 18.5 µM (inactive) | 25.1 µM (inactive) | 36.6 µM (inactive) | 39.8 µM (inactive) | 17.6 µM (inactive) | 59 µM (inactive) | 17.9 µM (inactive) | 25.8 µM (inactive) | 36.5 µM (inactive) | 45.6 µM
CCOC(=O)C(CCN1CCC2(CC1)C(=O)N(C)CN2c1ccccc1)C(=O)OCC | > 100 µM (inactive) | > 100 µM (inactive) | > 100 µM (inactive) | > 100 µM (inactive) | > 100 µM (inactive) | > 100 µM (inactive) | > 100 µM (inactive) | > 100 µM (inactive) | > 100 µM (inactive) | > 100 µM (inactive) | > 100 µM (inactive) | > 100 µM (inactive) | > 100 µM (inactive) | > 100 µM (inactive) | > 100 µM (inactive) | > 100 µM (inactive) | > 100 µM (inactive) | > 100 µM
O=[N+]([O-])c1ccc(CSC2=C(c3ccc(Cl)cc3)S/C(=C3\SC(SCc4ccc([N+](=O)[O-])cc4)=C(c4ccc(Cl)cc4)S3)S2)cc1 | > 100 µM (inactive) | > 100 µM (inactive) | > 100 µM (inactive) | > 100 µM (inactive) | > 100 µM (inactive) | > 100 µM (inactive) | > 100 µM (inactive) | > 100 µM (inactive) | > 100 µM (inactive) | > 100 µM (inactive) | > 100 µM (inactive) | > 100 µM (inactive) | > 100 µM (inactive) | > 100 µM (inactive) | – | > 100 µM (inactive) | > 100 µM (inactive) | > 100 µM
O=C1C=C(c2ccccc2)O/C1=C\C(=O)c1ccc(Cl)cc1 | – | 80.2 µM (inactive) | – | > 100 µM (inactive) | 21.9 µM (inactive) | 25.5 µM (inactive) | 19.6 µM (inactive) | 22.6 µM (inactive) | 20.7 µM (inactive) | 16.3 µM (inactive) | 3.58 µM (inactive) | > 100 µM (inactive) | 23.3 µM (inactive) | 3.66 µM (inactive) | 16.7 µM (inactive) | 16.7 µM (inactive) | > 100 µM (inactive) | 17.5 µM
COC1OC2COC1(OCc1ccccc1)C1OC(C)(C)OC21 (centres undefined) | > 100 µM (inactive) | > 100 µM (inactive) | > 100 µM (inactive) | > 100 µM (inactive) | > 100 µM (inactive) | > 100 µM (inactive) | > 100 µM (inactive) | > 100 µM (inactive) | > 100 µM (inactive) | > 100 µM (inactive) | > 100 µM (inactive) | > 100 µM (inactive) | > 100 µM (inactive) | > 100 µM (inactive) | > 100 µM (inactive) | > 100 µM (inactive) | > 100 µM (inactive) | > 100 µM
CCCCCCCCCCCCCOCCOCCOCCCCC(O)CCCCCCCCCC1=C[C@H](C)OC1=O (some centres undefined) | 23 µM (inactive) | – | 7.21 µM (inactive) | 30.8 µM (inactive) | 12.3 µM (inactive) | 13.7 µM (inactive) | 27.2 µM (inactive) | 18.7 µM (inactive) | 0.0488 µM (active) | 14.1 µM (inactive) | 15.6 µM (inactive) | 20.7 µM (inactive) | 16.3 µM (inactive) | 21.4 µM (inactive) | 1.96 µM (inactive) | 13.8 µM (inactive) | 17.5 µM (inactive) | 19.1 µM
CCN(CC)CCCNc1nc2ccccc2[n+]([O-])n1 | > 100 µM (inactive) | > 100 µM (inactive) | > 100 µM (inactive) | – | > 100 µM (inactive) | > 100 µM (inactive) | > 100 µM (inactive) | > 100 µM (inactive) | > 100 µM (inactive) | > 100 µM (inactive) | > 100 µM (inactive) | > 100 µM (inactive) | > 100 µM (inactive) | > 100 µM (inactive) | > 100 µM (inactive) | > 100 µM (inactive) | > 100 µM (inactive) | > 100 µM
Cc1ncc([N+](=O)[O-])n1CCNCCCCn1ccnc1[N+](=O)[O-] | > 100 µM (inactive) | > 100 µM (inactive) | > 100 µM (inactive) | > 100 µM (inactive) | > 100 µM (inactive) | > 100 µM (inactive) | > 100 µM (inactive) | > 100 µM (inactive) | > 100 µM (inactive) | > 100 µM (inactive) | > 100 µM (inactive) | – | > 100 µM (inactive) | > 100 µM (inactive) | > 100 µM (inactive) | > 100 µM (inactive) | > 100 µM (inactive) | > 100 µM
c1ccc2c(c1)ccn2CCc1c[nH]c2ccccc12 | > 10 µM (inactive) | – | > 10 µM (inactive) | > 10 µM (inactive) | > 10 µM (inactive) | > 10 µM (inactive) | > 10 µM (inactive) | > 10 µM (inactive) | > 10 µM (inactive) | > 10 µM (inactive) | > 10 µM (inactive) | > 10 µM (inactive) | > 10 µM (inactive) | > 10 µM (inactive) | > 10 µM (inactive) | > 10 µM (inactive) | > 10 µM (inactive) | > 10 µM
